Experimental data published in publication PMC10214531 (ACS Central Science, 2023).

What was measured:
Type in all cases: cell-based, human
[1] = test system: GLP-1R mutants of L172, C174, N177, Y250 and M340; assay: cAMP accumulation assay, mutants of functional residues except F169; conditions: mutants of six functional residues except F169; four independent experiments
From the text: The cDNA of human GLP-1R was cloned into vector pcDNA 3.1 or pRK. In the cAMP assay, the GLP-1R sequence comprises the native signal peptide (residues 1–23) and a FLAG tag. In flow cytometry analysis, the GLP-1R sequence contains the same native signal peptide, followed by a FLAG or HA tag. Mutations or deletions for the cAMP assay and flow cytometry were generated using seamless cloning with KOD-Plus-Neo (TOYOBO) and confirmed by DNA sequencing.
After overnight of culture, specified amounts of wild-type or mutant GLP-1R and 0.5 μg of pGloSensor cAMP plasmid were cotransfected into HEK-293T cells using calcium phosphate. After 24 h of culture, the transfected cells were seeded into 384-well plates (12 000 cells per well). cAMP accumulation was measured using the GloSensor cAMP assay kit (Promega) according to the manufacturer’s instructions. In brief, transfected cells were incubated for 30 min in GloSensor cAMP reagent at 37 °C and room temperature.
(§1) Significant difference is accepted at p < 0.05.

[2] = test system: GLP-1R-mediated Gs activation, Gαs L394 and L393 substituted; assay: G protein activation assay (BRET2 TRUPATH), Gαs double mutant L393 and L394; conditions: Gαs L394 and L393 both substituted, vs WT; HEK-293T
Description: (§2) Cells were treated with 20 μL of each compound.
as §1

[3] = test system: GLP-1R-mediated Gs activation, Gαs L394 to alanine; assay: G protein activation assay (BRET2 TRUPATH), Gαs mutant L394 to alanine; conditions: Gαs L394 replaced by alanine, vs WT; HEK-293T
Description: as §2, §1

GLP-1R alanine mutants = assay: cAMP accumulation assay (GloSensor), alanine scan of 37 GLP-1R residues
[4] = test system: GLP-1R-mediated Gs activation, Gαs alanine mutants; assay: G protein activation assay (BRET2 TRUPATH), alanine scan of 41 Gαs residues; conditions: 16 of 41 Gαs alanine mutants, vs WT
Description: as §2, §1

GLP-1R R344A = assay: cAMP accumulation assay (GloSensor)
[5] = test system: GLP-1R-mediated Gs activation, Gαs truncation of residues 2-10; assay: G protein activation assay (BRET2 TRUPATH), Gαs truncated 2-10; conditions: Gαs truncation of residues 2-10, vs WT, HEK-293T
Description: as §2, §1

GLP-1R Y250 = assay: G protein activation assay (BRET2 TRUPATH); conditions: agonist GLP-1, HEK-293T, s.d.
Description: as §2, §1

GLP-1R F169 = assay: G protein activation assay (BRET2 TRUPATH); conditions: agonist GLP-1, HEK-293T, s.d.
Description: as §2, §1

[6] = test system: GLP-1R-mediated Gs activation, Gαs truncation of residues 2-8; assay: G protein activation assay (BRET2 TRUPATH), Gαs truncated 2-8; conditions: Gαs truncation of residues 2-8, vs WT, HEK-293T
Description: as §2, §1

Compound	cAMP signaling vs WT [1]	GLP-1 activity in G protein dissociation [2]	GLP-1 efficacy in inducing G protein dissociation [3]	GLP-1 potency in cAMP signaling induction (GLP-1R alanine mutants; 18 of 37 GLP-1R alanine mutants, vs WT)	GLP-1 efficacy (cAMP) (GLP-1R alanine mutants; two mutants with abnormal expression (gray columns in Figure 5b))	GLP-1 efficacy in Gs activation [4]	EC50 (GLP-1R R344A; agonist GLP-1, HEK-293T, 15 min, 25 °C, surface expression 31±4.03 % WT)	Emax (GLP-1R R344A; agonist GLP-1, cAMP accumulation, HEK-293T)	Gs protein activation mediated by GLP-1R [5]	Emax (GLP-1R Y250)	Emax (GLP-1R F169)	Gs protein activation mediated by GLP-1R [6]
exendin-4: another peptide agonist (exendin-4)	attenuated cAMP signaling											
CC[C@H](C)[C@H](NC(=O)[C@H](Cc1ccccc1)NC(=O)[C@H](CCC(=O)O)NC(=O)[C@H](CCCCN)NC(=O)[C@H](C)NC(=O)[C@H](C)NC(=O)[C@H](CCC(N)=O)NC(=O)CNC(=O)[C@H](CCC(=O)O)NC(=O)[C@H](CC(C)C)NC(=O)[C@H](Cc1ccc(O)cc1)NC(=O)[C@H](CO)NC(=O)[C@H](CO)NC(=O)[C@@H](NC(=O)[C@H](CC(=O)O)NC(=O)[C@H](CO)NC(=O)[C@@H](NC(=O)[C@H](Cc1ccccc1)NC(=O)[C@@H](NC(=O)CNC(=O)[C@H](CCC(=O)O)NC(=O)[C@H](C)NC(=O)[C@@H](N)Cc1c[nH]cn1)[C@@H](C)O)[C@@H](C)O)C(C)C)C(=O)N[C@@H](C)C(=O)N[C@@H](Cc1c[nH]c2ccccc12)C(=O)N[C@@H](CC(C)C)C(=O)N[C@H](C(=O)N[C@@H](CCCCN)C(=O)NCC(=O)N[C@@H](CCCNC(=N)N)C(N)=O)C(C)C [GLP-1]		completely abolished the GLP-1 activity	decrease in GLP-1 efficacy	significant reduction of GLP-1 potency in cAMP signaling induction for 18 mutants	deficient GLP-1 efficacy	significant reduction of GLP-1 efficacy in Gs activation for 16 mutants	0.0865 ± 0.0099 nM	80±4 WT %	significantly attenuated the Gs protein activation	13.84±2.59 % WT	101.04±3.59 % WT	significantly attenuated the Gs protein activation
N#Cc1ccc(COc2cccc(C3CCN(Cc4nc5ccc(C(=O)O)cc5n4C[C@@H]4CCO4)CC3)n2)c(F)c1 [PF 06882961]	attenuated cAMP signaling											
